Where two headings read alike, the source gives them in different places.
Legend:
[1] = molecular target: T1, ATP-citrate lyase (ACL) (Homo sapiens, UniProt P53396); experiment: ACL inhibitory assay (ADP-Glo luminescence); assay type: biochemical
T1 sequence (P53396 1-1101): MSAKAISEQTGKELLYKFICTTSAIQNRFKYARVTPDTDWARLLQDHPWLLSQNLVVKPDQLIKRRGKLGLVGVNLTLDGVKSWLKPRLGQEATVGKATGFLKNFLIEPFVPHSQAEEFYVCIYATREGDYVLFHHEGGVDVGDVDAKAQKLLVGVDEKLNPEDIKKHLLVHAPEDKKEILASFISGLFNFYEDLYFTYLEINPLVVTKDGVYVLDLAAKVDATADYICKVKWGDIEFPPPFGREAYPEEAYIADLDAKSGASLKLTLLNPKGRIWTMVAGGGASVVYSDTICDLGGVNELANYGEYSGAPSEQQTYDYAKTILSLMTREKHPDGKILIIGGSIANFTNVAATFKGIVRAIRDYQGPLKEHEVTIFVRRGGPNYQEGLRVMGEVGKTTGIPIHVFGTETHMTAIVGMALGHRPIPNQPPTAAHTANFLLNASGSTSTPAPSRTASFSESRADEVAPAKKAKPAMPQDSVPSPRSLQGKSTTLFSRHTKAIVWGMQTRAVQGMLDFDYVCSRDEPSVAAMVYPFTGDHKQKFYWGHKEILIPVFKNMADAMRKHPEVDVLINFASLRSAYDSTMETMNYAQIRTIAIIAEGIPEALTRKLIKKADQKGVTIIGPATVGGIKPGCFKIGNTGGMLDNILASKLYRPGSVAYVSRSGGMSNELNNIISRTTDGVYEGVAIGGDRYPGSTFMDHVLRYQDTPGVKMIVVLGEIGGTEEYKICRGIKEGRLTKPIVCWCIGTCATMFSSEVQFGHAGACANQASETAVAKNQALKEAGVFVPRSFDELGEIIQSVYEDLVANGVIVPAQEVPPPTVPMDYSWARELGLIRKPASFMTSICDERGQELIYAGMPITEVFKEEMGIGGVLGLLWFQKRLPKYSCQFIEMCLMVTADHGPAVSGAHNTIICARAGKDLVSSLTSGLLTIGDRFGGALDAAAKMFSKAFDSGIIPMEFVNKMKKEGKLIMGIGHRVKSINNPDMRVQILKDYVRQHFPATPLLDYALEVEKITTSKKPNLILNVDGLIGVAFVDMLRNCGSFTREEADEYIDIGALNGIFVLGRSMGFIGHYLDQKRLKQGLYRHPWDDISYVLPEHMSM
Method: (§1) The ACC1 and ACL inhibitory activity assay were conducted using ADP-Glo^TM luminescence assay reagents (Promega Biotech Co., Ltd, Beijing, China), which measure ACC1 or ACL activity by quantifying the amount of ADP generated in the enzymatic reaction. […] Reactions were conducted in each well for 30 min at room temperature. Following this, 2.0 μL of ATP was added to each well, and the mixture was incubated for 1 h at room temperature. Negative control wells, which lacked the protein kinase, substrate, and ATP, were also included in the kinase assay. After the enzymatic reaction, 2.5 μL of ADP-Glo reagent was added to each well to terminate the kinase reaction and deplete any unconsumed ATP within 1 h at room temperature. Finally, 5.0 μL of kinase detection reagent was added to each well and incubated for 1 h to convert ADP to ATP. The luminescence signal was measured using a PerkinElmer EnVision reader.

[2] = molecular target: acetyl CoA carboxylase 1 (ACC1) (Homo sapiens, UniProt Q13085); experiment: ACC1 inhibitory assay (ADP-Glo luminescence); assay type: biochemical
Method: as §1

[3] = mean ± SEM of triplicated experiments
[4] = Figure 5, mean ± standard deviation (SD) (n = 3), read-out: IC50 (ACC1)
[5] = mean ± SEM of triplicated experiments, read-out: IC50 ACC1
[6] = Figure 5, mean ± standard deviation (SD) (n = 3)

Row | IC50 [1, 3] | IC50 [2, 4] | IC50 [2, 5] | IC50 [1, 6] | IC50 [2] | Compound
1 | 2 ± 0.5 µM | 10.3 ± 0.78 µM | 10.3 ± 0.8 µM |  |  | CC(=O)O[C@H]1CC[C@]2(C)[C@H]3CC=C4[C@@H]5[C@@H](C)[C@H](C)CC[C@]5(C(=O)O)CC[C@@]4(C)[C@]3(C)CC[C@H]2C1(C)C [Compound 17, 3β-acetyl-ursolic acid]
2 | 4.7 ± 1.3 µM |  | > 20 µM | 4.69 ± 1.3 µM |  | CC1(C)CC[C@]2(C(=O)O)CC[C@]3(C)C(=CC[C@@H]4[C@@]5(C)CC[C@H](O)[C@@](C)(COC(=O)/C=C/c6ccc(O)cc6)[C@@H]5CC[C@]43C)[C@@H]2C1 [Compound 31, (23E)-coumaroylhederagenin]
3 |  |  |  |  | 0.002 ± 0.0001 µM | COc1ccccc1[C@H](Cn1c(=O)n(C(C)(C)C(=O)O)c(=O)c2c(C)c(-c3ncco3)sc21)OC1CCOCC1 [ND 630, Firsocostat, reference compound]

More lines, now with the values behind:

Row | Compound | IC50 [1, 3] | IC50 [2, 4] | IC50 [2, 5] | IC50 [1, 6] | IC50 [2]
4 | COc1ccc(-c2ccccc2)cc1NS(=O)(=O)c1cc(Cl)cc(Cl)c1O [BMS 303141, reference compound] | 0.3 ± 0.1 µM |  |  |  | 
5 | C=C[C@H]1[C@H](O[C@@H]2O[C@H](CO)[C@@H](O)[C@H](O)[C@H]2O)OC=C(C(=O)O[C@H]2C[C@@H]3C(C(=O)OC)=CO[C@@H](O[C@@H]4O[C@H](CO)[C@@H](O)[C@H](OC(=O)/C=C/c5ccc(O)c(O)c5)[C@H]4O)[C@@H]3[C@@H]2C)[C@H]1CC(OC)OC [Compound 2, Amabilioside B] |  | 9.64 ± 0.99 µM | 9.6 ± 1 µM |  | 
6 | C=C[C@H]1[C@H](O[C@@H]2O[C@H](CO)[C@@H](O)[C@H](O)[C@H]2O)OC=C(C(=O)O[C@H]2C[C@@H]3C(C(=O)OC)=CO[C@@H](O)[C@@H]3[C@@H]2C)[C@H]1CC(OC)OC [Compound 8, lonicejaposide C] | 3.6 ± 0.9 µM |  | > 20 µM | 3.63 ± 0.91 µM | 
